# How the values were obtained:
# Assay in all cases: radiometric filter-binding kinase assay
# [1] = test system: AKT1 (human), P31749 [S473D]
# AURKA (human) = AURKA (human) (UniProt O14965)
# BRSK1 (human) = BRSK1 (human) (UniProt Q8TDC3)
# DYRK2 (human) = DYRK2 (human) (UniProt Q92630)
# EEF2K (human) = EEF2K (human) (UniProt O00418)
# EPHA2 (human) = EPHA2 (human) (UniProt P29317)
# EPHB3 (human) = EPHB3 (human) (UniProt P54753)
# ERBB4 (human) = ERBB4 (human) (UniProt Q15303)
# GSK3B (human) = GSK3B (human) (UniProt P49841)
# HIPK3 (human) = HIPK3 (human) (UniProt Q9H422)
# INSR (human) = INSR (human) (UniProt P06213)
# IRAK4 (human) = IRAK4 (human) (UniProt Q9NWZ3)
# MAP2K2 (human) = MAP2K2 (human) (UniProt P36507)
# MAP2K6 (human) = MAP2K6 (human) (UniProt P52564)
# MAP3K1 (human) = MAP3K1 (human) (UniProt Q13233)
# MAP3K11 (human) = MAP3K11 (human) (UniProt Q16584)
# MAP3K5 (human) = MAP3K5 (human) (UniProt Q99683)
# MAP3K7 TAB1 (human) = MAP3K7 TAB1 (human) (UniProt Q15750+O43318)
# MAP3K9 (human) = MAP3K9 (human) (UniProt P80192)
# MAPK12 (human) = MAPK12 (human) (UniProt P53778)
# MAPK9 (human) = MAPK9 (human) (UniProt P45984)
# MAPKAPK2 (human) = MAPKAPK2 (human) (UniProt P49137)
# MARK1 (human) = MARK1 (human) (UniProt Q9P0L2)
# MARK2 (human) = MARK2 (human) (UniProt Q7KZI7)
# MARK4 (human) = MARK4 (human) (UniProt Q96L34)
# MELK (human) = MELK (human) (UniProt Q14680)
# MST4 (human) = MST4 (human) (UniProt Q9P289)
# NTRK1 (human) = NTRK1 (human) (UniProt P04629)
# NUAK1 (human) = NUAK1 (human) (UniProt O60285)
# PAK4 (human) = PAK4 (human) (UniProt O96013)
# PAK6 (human) = PAK6 (human) (UniProt Q9NQU5)
# PIM1 (human) = PIM1 (human) (UniProt P11309)
# PKN2 (human) = PKN2 (human) (UniProt Q16513); settings: compound 0.01 µM
# PRKCA (human) = PRKCA (human) (UniProt P17252)
# PRKCZ (human) = PRKCZ (human) (UniProt Q05513)
# [2] = target: STK11 CAB39 STRADA (human) (UniProt Q9Y376+Q7RTN6+Q15831)
# NUAK1 (human), sequence (O60285 whole entry, looked up): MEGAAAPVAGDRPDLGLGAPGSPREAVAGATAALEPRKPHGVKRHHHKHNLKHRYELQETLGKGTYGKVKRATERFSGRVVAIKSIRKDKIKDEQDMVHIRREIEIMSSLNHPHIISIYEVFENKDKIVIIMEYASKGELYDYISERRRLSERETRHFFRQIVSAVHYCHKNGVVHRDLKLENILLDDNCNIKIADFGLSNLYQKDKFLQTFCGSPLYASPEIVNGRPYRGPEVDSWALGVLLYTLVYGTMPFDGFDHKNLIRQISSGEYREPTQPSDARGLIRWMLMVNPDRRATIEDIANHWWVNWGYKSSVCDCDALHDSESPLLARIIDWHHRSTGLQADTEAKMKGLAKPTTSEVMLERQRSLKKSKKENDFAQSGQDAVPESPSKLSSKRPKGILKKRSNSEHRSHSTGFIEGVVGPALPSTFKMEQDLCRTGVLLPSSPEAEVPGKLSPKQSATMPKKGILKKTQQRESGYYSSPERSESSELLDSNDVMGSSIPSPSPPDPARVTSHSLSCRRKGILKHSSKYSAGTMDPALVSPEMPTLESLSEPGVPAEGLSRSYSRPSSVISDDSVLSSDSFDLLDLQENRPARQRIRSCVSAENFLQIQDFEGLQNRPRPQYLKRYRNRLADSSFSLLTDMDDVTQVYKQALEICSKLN
# EPHB3 (human), sequence (P54753 whole entry, looked up): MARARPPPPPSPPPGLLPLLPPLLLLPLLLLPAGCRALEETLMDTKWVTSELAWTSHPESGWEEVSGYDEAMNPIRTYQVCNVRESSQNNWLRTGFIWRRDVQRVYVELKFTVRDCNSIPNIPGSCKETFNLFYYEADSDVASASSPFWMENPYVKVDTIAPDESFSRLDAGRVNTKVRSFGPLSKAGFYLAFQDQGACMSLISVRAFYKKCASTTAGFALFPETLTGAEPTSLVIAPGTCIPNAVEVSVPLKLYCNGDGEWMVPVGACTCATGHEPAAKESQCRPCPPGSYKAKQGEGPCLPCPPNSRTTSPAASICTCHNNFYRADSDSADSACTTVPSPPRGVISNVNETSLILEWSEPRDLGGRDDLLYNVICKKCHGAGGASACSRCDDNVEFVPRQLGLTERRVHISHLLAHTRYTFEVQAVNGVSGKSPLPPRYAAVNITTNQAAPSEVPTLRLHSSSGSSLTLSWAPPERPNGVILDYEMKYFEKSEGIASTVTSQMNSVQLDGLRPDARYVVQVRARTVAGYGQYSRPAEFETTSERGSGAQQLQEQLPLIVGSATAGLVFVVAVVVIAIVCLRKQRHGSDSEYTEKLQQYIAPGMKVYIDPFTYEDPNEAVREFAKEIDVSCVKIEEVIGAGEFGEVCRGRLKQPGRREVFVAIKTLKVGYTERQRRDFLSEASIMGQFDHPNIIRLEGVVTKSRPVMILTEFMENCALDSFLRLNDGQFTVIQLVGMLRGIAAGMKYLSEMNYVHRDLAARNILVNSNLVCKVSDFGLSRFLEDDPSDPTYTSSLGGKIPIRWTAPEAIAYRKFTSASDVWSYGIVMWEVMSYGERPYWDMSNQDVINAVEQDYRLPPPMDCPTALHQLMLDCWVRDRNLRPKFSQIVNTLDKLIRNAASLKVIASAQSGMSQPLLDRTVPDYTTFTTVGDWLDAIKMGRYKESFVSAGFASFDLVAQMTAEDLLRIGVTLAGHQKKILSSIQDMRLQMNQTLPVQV
# BRSK1 (human), sequence (Q8TDC3 whole entry, looked up): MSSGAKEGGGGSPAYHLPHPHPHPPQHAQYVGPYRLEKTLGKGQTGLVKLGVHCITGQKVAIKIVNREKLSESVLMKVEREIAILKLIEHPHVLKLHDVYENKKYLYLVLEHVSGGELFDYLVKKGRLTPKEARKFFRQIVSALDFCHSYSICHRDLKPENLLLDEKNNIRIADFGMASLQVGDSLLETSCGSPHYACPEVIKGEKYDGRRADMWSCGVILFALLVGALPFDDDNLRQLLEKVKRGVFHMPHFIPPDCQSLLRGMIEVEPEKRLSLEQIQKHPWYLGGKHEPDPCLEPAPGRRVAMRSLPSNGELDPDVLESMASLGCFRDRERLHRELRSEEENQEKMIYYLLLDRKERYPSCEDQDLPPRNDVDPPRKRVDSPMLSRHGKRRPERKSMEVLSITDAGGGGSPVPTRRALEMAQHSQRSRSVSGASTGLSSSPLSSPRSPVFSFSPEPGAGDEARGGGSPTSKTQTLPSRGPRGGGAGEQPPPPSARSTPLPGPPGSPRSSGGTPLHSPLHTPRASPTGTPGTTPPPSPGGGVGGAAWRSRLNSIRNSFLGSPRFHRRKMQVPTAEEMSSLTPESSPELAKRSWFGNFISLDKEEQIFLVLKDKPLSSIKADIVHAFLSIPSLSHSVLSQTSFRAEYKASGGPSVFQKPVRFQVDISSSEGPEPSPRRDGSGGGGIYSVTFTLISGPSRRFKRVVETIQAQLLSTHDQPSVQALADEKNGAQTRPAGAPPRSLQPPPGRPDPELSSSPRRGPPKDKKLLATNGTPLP
# MELK (human), sequence (Q14680 whole entry, looked up): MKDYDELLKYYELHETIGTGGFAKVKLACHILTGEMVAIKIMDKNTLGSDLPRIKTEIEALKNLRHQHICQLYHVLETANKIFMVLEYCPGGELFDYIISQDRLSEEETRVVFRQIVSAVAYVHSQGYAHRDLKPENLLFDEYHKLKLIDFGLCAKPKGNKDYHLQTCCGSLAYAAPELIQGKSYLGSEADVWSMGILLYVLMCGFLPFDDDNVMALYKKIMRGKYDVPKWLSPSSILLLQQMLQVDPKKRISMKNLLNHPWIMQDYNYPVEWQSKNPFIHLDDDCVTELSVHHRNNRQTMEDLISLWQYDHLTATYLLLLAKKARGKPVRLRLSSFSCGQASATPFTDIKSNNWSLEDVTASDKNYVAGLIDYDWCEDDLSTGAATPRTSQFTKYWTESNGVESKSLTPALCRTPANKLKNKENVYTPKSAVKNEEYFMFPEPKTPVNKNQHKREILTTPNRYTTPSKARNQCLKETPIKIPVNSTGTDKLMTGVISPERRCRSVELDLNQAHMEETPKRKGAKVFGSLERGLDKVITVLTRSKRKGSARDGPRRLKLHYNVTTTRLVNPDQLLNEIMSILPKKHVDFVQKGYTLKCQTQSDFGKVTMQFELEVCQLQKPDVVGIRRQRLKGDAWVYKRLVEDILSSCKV
# MAP3K5 (human), sequence (Q99683 whole entry, looked up): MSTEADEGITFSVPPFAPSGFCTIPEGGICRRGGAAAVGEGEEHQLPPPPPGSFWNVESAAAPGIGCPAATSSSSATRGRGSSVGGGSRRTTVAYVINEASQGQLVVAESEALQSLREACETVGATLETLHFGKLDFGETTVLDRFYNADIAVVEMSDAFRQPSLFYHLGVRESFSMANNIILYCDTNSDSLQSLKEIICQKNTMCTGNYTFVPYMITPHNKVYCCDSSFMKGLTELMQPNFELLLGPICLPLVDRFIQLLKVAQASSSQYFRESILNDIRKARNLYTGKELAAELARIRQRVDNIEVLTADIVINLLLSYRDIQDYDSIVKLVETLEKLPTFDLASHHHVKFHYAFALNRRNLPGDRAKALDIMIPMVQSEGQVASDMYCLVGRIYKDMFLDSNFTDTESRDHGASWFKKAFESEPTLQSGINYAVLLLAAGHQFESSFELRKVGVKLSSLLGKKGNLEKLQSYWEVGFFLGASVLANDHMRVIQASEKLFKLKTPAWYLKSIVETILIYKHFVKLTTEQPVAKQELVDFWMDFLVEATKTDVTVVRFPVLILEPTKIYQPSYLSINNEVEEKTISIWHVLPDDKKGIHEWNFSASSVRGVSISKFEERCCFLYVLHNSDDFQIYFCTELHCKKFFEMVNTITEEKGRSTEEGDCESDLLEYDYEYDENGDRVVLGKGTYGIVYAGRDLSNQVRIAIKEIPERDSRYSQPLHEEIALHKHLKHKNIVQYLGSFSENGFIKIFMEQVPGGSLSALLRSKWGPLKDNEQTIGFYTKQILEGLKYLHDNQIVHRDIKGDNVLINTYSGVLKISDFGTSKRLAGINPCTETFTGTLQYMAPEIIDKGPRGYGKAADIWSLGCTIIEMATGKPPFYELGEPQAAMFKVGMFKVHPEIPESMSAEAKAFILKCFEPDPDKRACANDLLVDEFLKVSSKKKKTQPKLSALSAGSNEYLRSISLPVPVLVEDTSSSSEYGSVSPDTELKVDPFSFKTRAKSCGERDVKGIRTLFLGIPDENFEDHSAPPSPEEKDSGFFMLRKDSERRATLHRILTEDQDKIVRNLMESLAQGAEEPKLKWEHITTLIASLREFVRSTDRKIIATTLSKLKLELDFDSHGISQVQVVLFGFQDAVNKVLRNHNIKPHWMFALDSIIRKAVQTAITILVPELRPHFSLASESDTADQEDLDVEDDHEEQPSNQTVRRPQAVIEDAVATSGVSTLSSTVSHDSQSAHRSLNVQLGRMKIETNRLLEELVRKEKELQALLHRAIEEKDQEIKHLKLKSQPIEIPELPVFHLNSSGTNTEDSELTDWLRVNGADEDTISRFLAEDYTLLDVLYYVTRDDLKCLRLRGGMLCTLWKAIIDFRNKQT
# MAPK9 (human), sequence (P45984 whole entry, looked up): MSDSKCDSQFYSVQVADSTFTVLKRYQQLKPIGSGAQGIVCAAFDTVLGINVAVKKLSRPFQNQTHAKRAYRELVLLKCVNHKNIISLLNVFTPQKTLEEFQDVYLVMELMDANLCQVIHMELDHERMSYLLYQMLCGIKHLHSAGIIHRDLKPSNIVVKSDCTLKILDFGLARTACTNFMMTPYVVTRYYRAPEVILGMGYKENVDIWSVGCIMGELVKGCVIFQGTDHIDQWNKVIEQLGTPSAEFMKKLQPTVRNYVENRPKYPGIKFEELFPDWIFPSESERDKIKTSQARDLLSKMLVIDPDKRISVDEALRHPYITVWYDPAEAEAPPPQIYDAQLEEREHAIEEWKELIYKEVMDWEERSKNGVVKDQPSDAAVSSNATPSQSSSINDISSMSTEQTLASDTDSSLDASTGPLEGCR
smiles,measurement,setting,value
COc1cc(O)c2c(c1)[C@H]1OC1C[C@H](O)[C@H](O)C(=O)/C=C\C[C@H](C)OC2=O (some centres not stated),residual activity,[1]; compound 0.01 µM,109%
same,residual activity,[1]; compound 0.1 µM,124%
same,residual activity,[1]; compound 1.0 µM,107%
same,residual activity,AURKA (human); compound 0.01 µM,106%
same,residual activity,AURKA (human); compound 0.1 µM,103%
same,residual activity,AURKA (human); compound 1.0 µM,108%
same,residual activity,BRSK1 (human); compound 0.01 µM,90%
same,residual activity,BRSK1 (human); compound 0.1 µM,90%
same,residual activity,BRSK1 (human); compound 1.0 µM,82%
same,residual activity,DYRK2 (human); compound 0.01 µM,109%
same,residual activity,DYRK2 (human); compound 0.1 µM,105%
same,residual activity,EEF2K (human); compound 0.01 µM,91%
same,residual activity,EEF2K (human); compound 0.1 µM,103%
same,residual activity,EPHA2 (human); compound 0.01 µM,97%
same,residual activity,EPHA2 (human); compound 0.1 µM,98%
same,residual activity,EPHA2 (human); compound 1.0 µM,56%
same,residual activity,EPHB3 (human); compound 0.01 µM,118%
same,residual activity,EPHB3 (human); compound 0.1 µM,130%
same,residual activity,EPHB3 (human); compound 1.0 µM,92%
same,residual activity,ERBB4 (human); compound 0.1 µM,104%
same,residual activity,ERBB4 (human); compound 1.0 µM,105%
same,residual activity,GSK3B (human); compound 0.01 µM,91%
same,residual activity,GSK3B (human); compound 0.1 µM,106%
same,residual activity,HIPK3 (human); compound 0.01 µM,104%
same,residual activity,HIPK3 (human); compound 0.1 µM,100%
same,residual activity,HIPK3 (human); compound 1.0 µM,102%
same,residual activity,INSR (human); compound 0.01 µM,112%
same,residual activity,INSR (human); compound 0.1 µM,116%
same,residual activity,INSR (human); compound 1.0 µM,97%
same,residual activity,IRAK4 (human); compound 0.01 µM,112%
same,residual activity,IRAK4 (human); compound 0.1 µM,99%
same,residual activity,IRAK4 (human); compound 1.0 µM,57%
same,residual activity,MAP2K2 (human); compound 0.01 µM,74%
same,residual activity,MAP2K2 (human); compound 0.1 µM,21%
same,residual activity,MAP2K2 (human); compound 1.0 µM,9%
same,residual activity,MAP2K6 (human); compound 0.01 µM,59%
same,residual activity,MAP2K6 (human); compound 0.1 µM,21%
same,residual activity,MAP2K6 (human); compound 1.0 µM,20%
same,residual activity,MAP3K1 (human); compound 0.01 µM,112%
same,residual activity,MAP3K1 (human); compound 0.1 µM,101%
same,residual activity,MAP3K1 (human); compound 1.0 µM,102%
same,residual activity,MAP3K11 (human); compound 0.1 µM,102%
same,residual activity,MAP3K11 (human); compound 1.0 µM,90%
same,residual activity,MAP3K5 (human); compound 0.01 µM,105%
same,residual activity,MAP3K5 (human); compound 0.1 µM,103%
same,residual activity,MAP3K5 (human); compound 1.0 µM,109%
same,residual activity,MAP3K7 TAB1 (human); compound 0.01 µM,101%
same,residual activity,MAP3K7 TAB1 (human); compound 0.1 µM,48%
same,residual activity,MAP3K7 TAB1 (human); compound 1.0 µM,2%
same,residual activity,MAP3K9 (human); compound 0.01 µM,112%
same,residual activity,MAP3K9 (human); compound 0.1 µM,117%
same,residual activity,MAP3K9 (human); compound 1.0 µM,101%
same,residual activity,MAPK12 (human); compound 0.01 µM,100%
same,residual activity,MAPK12 (human); compound 0.1 µM,105%
same,residual activity,MAPK9 (human); compound 0.01 µM,105%
same,residual activity,MAPK9 (human); compound 0.1 µM,106%
same,residual activity,MAPK9 (human); compound 1.0 µM,99%
same,residual activity,MAPKAPK2 (human); compound 0.01 µM,93%
same,residual activity,MAPKAPK2 (human); compound 0.1 µM,101%
same,residual activity,MARK1 (human); compound 0.01 µM,101%
same,residual activity,MARK1 (human); compound 0.1 µM,99%
same,residual activity,MARK1 (human); compound 1.0 µM,101%
same,residual activity,MARK2 (human); compound 0.01 µM,90%
same,residual activity,MARK2 (human); compound 0.1 µM,100%
same,residual activity,MARK2 (human); compound 1.0 µM,100%
same,residual activity,MARK4 (human); compound 0.01 µM,103%
same,residual activity,MARK4 (human); compound 0.1 µM,99%
same,residual activity,MELK (human); compound 0.01 µM,92%
same,residual activity,MELK (human); compound 0.1 µM,100%
same,residual activity,MELK (human); compound 1.0 µM,104%
same,residual activity,MST4 (human); compound 0.01 µM,96%
same,residual activity,MST4 (human); compound 0.1 µM,106%
same,residual activity,MST4 (human); compound 1.0 µM,86%
same,residual activity,NTRK1 (human); compound 0.01 µM,97%
same,residual activity,NTRK1 (human); compound 0.1 µM,90%
same,residual activity,NTRK1 (human); compound 1.0 µM,67%
same,residual activity,NUAK1 (human); compound 0.01 µM,93%
same,residual activity,NUAK1 (human); compound 0.1 µM,99%
same,residual activity,NUAK1 (human); compound 1.0 µM,105%
same,residual activity,PAK4 (human); compound 0.01 µM,81%
same,residual activity,PAK4 (human); compound 0.1 µM,100%
same,residual activity,PAK6 (human); compound 0.01 µM,92%
same,residual activity,PAK6 (human); compound 0.1 µM,95%
same,residual activity,PAK6 (human); compound 1.0 µM,95%
same,residual activity,PIM1 (human); compound 0.01 µM,90%
same,residual activity,PIM1 (human); compound 0.1 µM,87%
same,residual activity,PIM1 (human); compound 1.0 µM,92%
same,residual activity,PKN2 (human),93%
same,residual activity,PRKCA (human); compound 0.01 µM,88%
same,residual activity,PRKCA (human); compound 0.1 µM,88%
same,residual activity,PRKCA (human); compound 1.0 µM,92%
same,residual activity,PRKCZ (human); compound 0.01 µM,97%
same,residual activity,PRKCZ (human); compound 0.1 µM,78%
same,residual activity,PRKCZ (human); compound 1.0 µM,105%
same,residual activity,[2]; compound 0.01 µM,119%
same,residual activity,[2]; compound 0.1 µM,120%
same,residual activity,[2]; compound 1.0 µM,104%

# Source: the kinase profiling compilation of Christmann-Franck et al. (2016)
